Test results reported in patent US12404283B2, “c-MYC mRNA translation modulators and uses thereof in the treatment of cancer” (Anima Biotech Inc., priority 2022, dated 2025).

Each molecule was assayed on c-Myc (assay: c-Myc immunofluorescence assay). Conditions: A549 cells, 24 hours treatment, anti-c-Myc immunofluorescence.
Format: cell-based, human
Procedure, shortened: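 High-content imaging (20×) of PFA-fixed A549 cells immunostained for c-Myc with DAPI nuclei, after 24 h compound treatment at increasing concentrations. Per-cell c-Myc signal in identified cell regions was plotted against dose and fitted by logistic regression to give EC50.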

SMILES | Myc Efficacy (−LogEC50)
CNC(=O)c1ccc(-c2cn3c(n2)sc2cc(C(=O)NCC4(N)CC4)ccc23)cc1 [compound 251, N-((1-aminocyclopropyl)methyl)-2-(4-(methylcarbamoyl)phenyl) benzo[d]imidazo[2,1-b]thiazole-7-carboxamide] | − (− ≤3)
CNC(=O)c1ccc(-c2cn3c(n2)sc2cc(C(=O)NCC4CC(=O)N(C)C4)ccc23)cc1 (centres unmarked) [compound 252, N-((1-methyl-5-oxopyrrolidin-3-yl)methyl)-2-(4-(methylcarbamoyl)phenyl) benzo[d]imidazo[2,1-b]thiazole-7-carboxamide] | + (+ >3 and <5)
CNC(=O)c1ccc(-c2cn3c(n2)sc2cc(C(=O)N[C@H]4[C@@H]5CNC[C@@H]54)ccc23)cc1 [compound 253, N-((1R,5S,6s)-3-azabicyclo[3.1.0]hexan-6-yl)-2-(4-(methylcarbamoyl)phenyl) benzo[d]imidazo[2,1-b]thiazole-7-carboxamide] | + (+ >3 and <5)
CNC(=O)c1ccc(-c2cn3c(n2)sc2cc(C(=O)NCC4CCC(=O)N4C)ccc23)cc1 (centres unmarked) [compound 254, N-((1-methyl-5-oxopyrrolidin-2-yl)methyl) 2-(4-(methylcarbamoyl)phenyl) benzo[d]imidazo[2,1-b]thiazole-7-carboxamide] | + (+ >3 and <5)
CNC(=O)c1ccc(-c2cn3c(n2)sc2cc(C(=O)NCC(=O)NCC(F)(F)F)ccc23)cc1 [compound 255, 2-(4-(methylcarbamoyl)phenyl)-N-(2-oxo-2-((2,2,2-trifluoroethyl)amino)ethyl) benzo[d]imidazo[2,1-b]thiazole-7-carboxamide] | − (− ≤3)
CNC(=O)c1ccc(-c2cn3c(n2)sc2cc(C(=O)NC[C@H](O)c4ccccc4)ccc23)cc1 [compound 256, (R)-N-(2-hydroxy-2-phenylethyl)-2-(4-(methylcarbamoyl)phenyl) benzo[d]imidazo[2,1-b]thiazole-7-carboxamide] | − (− ≤3)
CNC(=O)c1ccc(-c2cn3c(n2)sc2cc(C(=O)NCCC4CCCN4C)ccc23)cc1 (centres unmarked) [compound 257, 2-(4-(methylcarbamoyl)phenyl)-N-(2-(1-methylpyrrolidin-2-yl)ethyl)benzo[d]imidazo [2,1-b]thiazole-7-carboxamide] | ++ (++ ≥5 and <6)
CNC(=O)c1ccc(-c2cn3c(n2)sc2cc(C(=O)NC4CC(O)C4(C)C)ccc23)cc1 (centres unmarked) [compound 258, N-(3-hydroxy-2,2-dimethylcyclobutyl)-2-(4-(methylcarbamoyl)phenyl) benzo[d]imidazo[2,1-b]thiazole-7-carboxamide] | + (+ >3 and <5)
CNC(=O)c1ccc(-c2cn3c(n2)sc2cc(C(=O)NCC4CC4(F)F)ccc23)cc1 (centres unmarked) [compound 259, N-((2,2-difluorocyclopropyl)methyl)-2-(4-(methylcarbamoyl)phenyl) benzo[d]imidazo[2,1-b]thiazole-7-carboxamide] | + (+ >3 and <5)
CNC(=O)c1ccc(-c2cn3c(n2)sc2cc(C(=O)NCCC4(O)CCCC4)ccc23)cc1 [compound 260, N-(2-(1-hydroxycyclopentyl)ethyl)-2-(4-(methylcarbamoyl)phenyl) benzo[d]imidazo[2,1-b]thiazole-7-carboxamide] | − (− ≤3)
CNC(=O)c1ccc(-c2cn3c(n2)sc2cc(C(=O)NCC4(C)CC4)ccc23)cc1 [compound 261, 2-(4-(methylcarbamoyl)phenyl) N-((1-methylcyclopropyl)methyl) benzo[d]imidazo[2,1-b]thiazole-7-carboxamide] | − (− ≤3)
CNC(=O)c1ccc(-c2cn3c(n2)sc2cc(C(=O)NCCN4CCCCC4C)ccc23)cc1 (centres unmarked) [compound 262, 2-(4-(methylcarbamoyl)phenyl) N-(2-(2-methylpiperidin-1-yl)ethyl)benzo[d]imidazo [2,1-b]thiazole-7-carboxamide] | + (+ >3 and <5)
CNC(=O)c1ccc(-c2cn3c(n2)sc2cc(C(=O)N[C@H]4c5ccccc5C[C@H]4O)ccc23)cc1 [compound 263, N-((1S,2R)-2-hydroxy-2,3-dihydro-1H-inden-1-yl)-2-(4-(methylcarbamoyl)phenyl) benzo[d]imidazo[2,1-b]thiazole-7-carboxamide] | − (− ≤3)
CCCN1CCC(NC(=O)c2ccc3c(c2)sc2nc(-c4ccc(C(=O)NC)cc4)cn23)CC1 [compound 264, 2-(4-(methylcarbamoyl)phenyl)-N-(1-propylpiperidin-4-yl)benzo[d]imidazo[2,1-b]thiazole-7-carboxamide] | +++ (+++ ≥6)
Cc1cccc(-c2cn3c(n2)sc2cc(NC(=O)N4CCNCC4)ccc23)c1 [compound 265, N-(2-(m-tolyl)benzo[d]imidazo[2,1-b]thiazol-7-yl)piperazine-1-carboxamide] | + (+ >3 and <5)
CCN(CC)CCCC(=O)Nc1ccc2c(c1)sc1nc(-c3cccc(C)c3)cn12 [compound 266, 4-(diethylamino)-N-(2-(m-tolyl)benzo[d]imidazo[2,1-b]thiazol-7-yl)butanamide] | + (+ >3 and <5)

SMILES | Myc Efficacy (−LogEC50)
CCN(CC)CCNC(=O)Nc1ccc2c(c1)sc1nc(-c3cccc(C)c3)cn12 [compound 267, 1-(2-(diethylamino)ethyl)-3-(2-(m-tolyl)benzo[d]imidazo[2,1-b]thiazol-7-yl)urea] | + (+ >3 and <5)
CCN(CC)CCCNC(=O)c1ccc2c(c1)sc1nc(-c3ccc(-c4ncc[nH]4)cc3)cn12 [compound 268, 2-(4-(1H-imidazol-2-yl)phenyl)-N-(3-(diethylamino)propyl) benzo[d]imidazo[2,1-b] thiazole-7-carboxamide] | + (+ >3 and <5)
CNC(=O)c1ccc(-c2cn3c(n2)sc2cc(C(=O)NC4CC(N(C)C)C4)ccc23)cc1 (centres unmarked) [compound 269, N-(3-(dimethylamino)cyclobutyl)-2-(4-(methylcarbamoyl)phenyl) benzo[d]imidazo[2,1-b]thiazole-7-carboxamide] | + (+ >3 and <5)
CNC(=O)c1ccc(-c2cn3c(n2)sc2cc(C(=O)NC4CCCC(N)C4)ccc23)cc1 (centres unmarked) [compound 270, N-(3-aminocyclohexyl)-2-(4-(methylcarbamoyl)phenyl) benzo[d]imidazo[2,1-b]thiazole-7-carboxamide] | + (+ >3 and <5)
CNC(=O)c1ccc(-c2cn3c(n2)sc2cc(C(=O)NCCCN4CCCC4CO)ccc23)cc1 (centres unmarked) [compound 271, N-(3-(2-(hydroxymethyl)pyrrolidin-1-yl)propyl)-2-(4-(methylcarbamoyl)phenyl) benzo[d]imidazo[2,1-b]thiazole-7-carboxamide] | + (+ >3 and <5)
CNC(=O)c1ccc(-c2cn3c(n2)sc2cc(C(=O)NCC4CC5(CNC5)C4)ccc23)cc1 [compound 272, N-((2-azaspiro[3.3]heptan-6-yl)methyl)-2-(4-(methylcarbamoyl)phenyl) benzo[d]imidazo[2,1-b]thiazole-7-carboxamide] | − (− ≤3)
CNC(=O)c1ccc(-c2cn3c(n2)sc2cc(C(=O)NC[C@H]4CC[C@H](O)CC4)ccc23)cc1 [compound 273, N-(((1r,4r)-4-hydroxycyclohexyl)methyl)-2-(4-(methylcarbamoyl)phenyl) benzo[d]imidazo[2,1-b]thiazole-7-carboxamide] | − (− ≤3)
CNC(=O)c1ccc(-c2cn3c(n2)sc2cc(C(=O)N[C@H](C)C4CC4)ccc23)cc1 [compound 274, (R)-N-(1-cyclopropylethyl)-2-(4-(methylcarbamoyl)phenyl) benzo[d]imidazo[2,1-b]thiazole-7-carboxamide] | + (+ >3 and <5)
CNC(=O)c1ccc(-c2cn3c(n2)sc2cc(C(=O)NCc4ccccc4)ccc23)cc1 [compound 275, N-benzyl-2-(4-(methylcarbamoyl)phenyl) benzo[d]imidazo[2,1-b]thiazole-7-carboxamide] | − (− ≤3)
CCN(CC)CCCNC(=O)c1ccc2c(c1)sc1nc(-c3ccc(CN(C)C)cc3)cn12 [compound 276, N-(3-(diethylamino)propyl)-2-(4-((dimethylamino)methyl)phenyl)benzo[d]imidazo[2,1-b]thiazole-7-carboxamide] | +++ (+++ ≥6)
CCN(CC)CCCNC(=O)c1ccc2c(c1)sc1nc(-c3ccc(CO)cc3)cn12 [compound 277, N-(3-(diethylamino)propyl)-2-(4-(hydroxymethyl)phenyl) benzo[d]imidazo[2,1-b] thiazole-7-carboxamide] | ++ (++ ≥5 and <6)
CNC(=O)c1ccc(-c2cn3c(n2)sc2cc(C(=O)NCC4(C)CNC4)ccc23)cc1 [compound 278, N-((3-methylazetidin-3-yl)methyl)-2-(4-(methylcarbamoyl)phenyl) benzo[d]imidazo[2,1-b]thiazole-7-carboxamide] | − (− ≤3)
CNC(=O)c1ccc(-c2cn3c(n2)sc2cc(C(=O)NCC4CC5(CC5)CN4)ccc23)cc1 (centres unmarked) [compound 279, N-((5-azaspiro[2.4]heptan-6-yl)methyl)-2-(4-(methylcarbamoyl)phenyl) benzo[d]imidazo[2,1-b]thiazole-7-carboxamide] | − (− ≤3)
CNC(=O)c1ccc(-c2cn3c(n2)sc2cc(C(=O)NC4CC(C)C4)ccc23)cc1 (centres unmarked) [compound 280, 2-(4-(methylcarbamoyl)phenyl)-N-(3-methylcyclobutyl)benzo[d] imidazo[2,1-b]thiazole-7-carboxamide] | ++ (++ ≥5 and <6)
CNC(=O)c1ccc(-c2cn3c(n2)sc2cc(C(=O)NCCCN4CCCCC4)ccc23)c(F)c1 [compound 281, 2-(2-fluoro-4-(methylcarbamoyl)phenyl)-N-(3-(piperidin-1-yl)propyl)benzo[d]imidazo [2,1-b]thiazole-7-carboxamide] | ++ (++ ≥5 and <6)
CCNC(=O)c1ccc(-c2cn3c(n2)sc2cc(C(=O)NCCCN(CC)CC)ccc23)cc1 [compound 282, N-(3-(diethylamino)propyl)-2-(4-(ethylcarbamoyl)phenyl) benzo[d]imidazo[2,1-b]thiazole-7-carboxamide] | + (+ >3 and <5)
